≈ marks a conversion by molar mass, not a printed value.
What was measured:
Format in all cases: functional
[1] = system: Mycolicibacterium smegmatis; experiment: Antimycobacterial activity against ciprofloxacin,lomofloxacin and norflaxacin-resistant Mycobacterium smegmatis CSC-101 after 24 hr by two-fold serial micro broth dilution method; details: CSC-101, 24 h
[2] = system: Mycolicibacterium smegmatis; experiment: Antimycobacterial activity against quinolones and ciprofloxacin-resistant Mycobacterium smegmatis MDRQ after 24 hr by two-fold serial micro broth dilution method
[3] = system: Mycolicibacterium smegmatis; experiment: Antimycobacterial activity against lomofloxacin-resistant Mycobacterium smegmatis Lom R5 after 24 hr by two-fold serial micro broth dilution method; details: Lom R5, 24 h
[4] = system: Mycolicibacterium smegmatis; experiment: Antimycobacterial activity against rifampicin,amphiciline and kanamycin-resistant Mycobacterium smegmatis MDR-40 after 24 hr by two-fold serial micro broth dilution method; details: MDR-40, 24 h
[5] = system: Mycolicibacterium smegmatis; experiment: Antimycobacterial activity against rifampicin,tetracycline and chloramphenicol-resistant Mycobacterium smegmatis MDR-R after 24 hr by two-fold serial micro broth dilution method
[6] = system: Mycolicibacterium smegmatis; experiment: Antimycobacterial activity against Mycobacterium smegmatis str. MC2 155 after 24 hr by two-fold serial micro broth dilution method; details: str. MC2 155, 24 h

CCCCC#CCCCC#CCCCCO
MIC [1]: 62.5 µg/mL (≈ 284 µM) | MIC [2]: 250 µg/mL (≈ 1130 µM) | MIC [3]: > 250 µg/mL | MIC [4]: 31.2 µg/mL (≈ 142 µM) | MIC [5]: 31.2 µg/mL (≈ 142 µM) | MIC [6]: 125 µg/mL (≈ 567 µM)

O=C(O)c1cn(C2CC2)c2cc(N3CCNCC3)c(F)cc2c1=O [CIPROFLOXACIN]
MIC [1]: 3.12 µg/mL (≈ 9.43 µM) | MIC [2]: 25 µg/mL (≈ 75.4 µM) | MIC [3]: 25 µg/mL (≈ 75.4 µM) | MIC [4]: > 25 µg/mL | MIC [5]: 3.12 µg/mL (≈ 9.43 µM) | MIC [6]: 0.78 µg/mL (≈ 2.35 µM)

CC1(C)CCC[C@@]2(C)C(CO)[C@H]3CC[C@H]2C3C1 (stereo not given in full) [HYDROXY JUNEPENE]
MIC [1]: 125 µg/mL (≈ 529 µM) | MIC [2]: > 250 µg/mL | MIC [3]: > 250 µg/mL | MIC [4]: 31.2 µg/mL (≈ 132 µM) | MIC [5]: 62.5 µg/mL (≈ 264 µM) | MIC [6]: 62.5 µg/mL (≈ 264 µM)

CCn1cc(C(=O)O)c(=O)c2cc(F)c(N3CCNC(C)C3)c(F)c21 (stereo not given) [LOMEFLOXACIN]
MIC [1]: < 1 µg/mL | MIC [2]: > 50 µg/mL | MIC [3]: > 50 µg/mL | MIC [4]: 2.5 µg/mL (≈ 7.12 µM) | MIC [5]: 10 µg/mL (≈ 28.5 µM) | MIC [6]: 0.78 µg/mL (≈ 2.22 µM)

CCn1cc(C(=O)O)c(=O)c2ccc(C)nc21 [NALIDIXIC ACID]
MIC [1]: 6.25 µg/mL (≈ 26.9 µM) | MIC [2]: 50 µg/mL (≈ 215 µM) | MIC [3]: 25 µg/mL (≈ 108 µM) | MIC [4]: 50 µg/mL (≈ 215 µM) | MIC [5]: 50 µg/mL (≈ 215 µM) | MIC [6]: 0.78 µg/mL (≈ 3.36 µM)
